In patent US9585891B2 (MERCK PATENT GMBH, priority 2012, dated 2017):

Assays:
[1] = molecular target: T1, Vanin-1 in SUIT-S2 cell line (Homo sapiens, UniProt O95497); assay: Vanin-1 cell-based mechanistic assay (fluorescence intensity, Pantothenate-AMC substrate); details: 40000 cells per well, 2 hours incubation at 37° C., Pantothenate-AMC 30 μM, 30 min
T1 construct: endogenous in cells; host or cells: SUIT-S2 cell line (ATCC # CRL1596)
T1 sequence (O95497 22-491): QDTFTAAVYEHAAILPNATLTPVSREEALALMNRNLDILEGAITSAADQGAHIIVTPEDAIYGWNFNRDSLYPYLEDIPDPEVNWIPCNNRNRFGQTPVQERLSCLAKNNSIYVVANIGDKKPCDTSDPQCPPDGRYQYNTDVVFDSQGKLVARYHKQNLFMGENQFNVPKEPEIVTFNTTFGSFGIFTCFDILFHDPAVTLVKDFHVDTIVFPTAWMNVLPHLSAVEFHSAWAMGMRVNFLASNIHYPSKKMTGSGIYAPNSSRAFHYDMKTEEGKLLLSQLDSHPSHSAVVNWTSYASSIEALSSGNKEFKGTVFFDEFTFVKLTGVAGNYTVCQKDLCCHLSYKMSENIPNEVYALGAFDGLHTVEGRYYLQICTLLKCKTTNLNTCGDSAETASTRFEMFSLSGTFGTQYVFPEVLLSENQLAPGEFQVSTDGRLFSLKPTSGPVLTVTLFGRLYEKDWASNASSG
Experimental: Vanin-1 Cell-Based Mechanistic Assay:
The cellular activity of the examples is measured in 96-well format based on fluorescence intensity assay using SUIT-S2 cell line (ATCC # CRL1596).
Cells are cultured at 37° C. with 5% CO2 to 80-90% confluence and then washed once with phosphate-buffered saline (PBS). Adherent cells are detached with PBS-EDTA and once in suspension 40000 cells are dispensed in 90 μl of PBS in 96-well black plates with clear bottoms. Threefold serial dilutions of test compounds are made in DMSO and then solubilized in PBS, dilution range 1:30. Cells and serial diluted test compounds (final concentrations 10 μM to 4.6 nM) or controls (PBS/0.3% DMSO) are incubated for 2 hours at 37° C. with 5% CO2. The reaction is initiated by the addition of the fluorogenic substrate, Pantothenate-AMC, at a concentration of 30 μM. After 30 minutes of incubation at 30° C. with gentle agitation, fluorescence intensity is measured at λex=350 nm and λem=450 nm with a fluorescence reader (BMG PHERAstar reader or equivalent).

[2] = molecular target: T2, Human recombinant Vanin-1 (VNN1) (Homo sapiens, UniProt O95497); assay: Vanin-1 enzymatic assay (fluorescence intensity, Pantothenate-AMC substrate); type: biochemical; details: purified recombinant human Vanin-1 0.5 nM; 30 min preincubation at 30° C.; Pantothenate-AMC 30 μM, 60 min
T2 construct: purchased Sino Biological Inc. 11662-H08H
T2 sequence (O95497 22-491): T1 sequence (O95497 22-491)
Experimental: Human recombinant Vanin-1 (VNN1) was purchased from Sino Biological Inc. (Catalog Number: 11662-H08H).
Measurement of VNN1 inhibition is performed in 384-well format based on fluorescence intensity assay. Purified recombinant human Vanin-1 (0.5 nM) and threefold serial diluted compounds in 3% DMSO (range of concentrations from 30 μM to 1.524 nM) or controls (3.0% DMSO) are incubated for 30 minutes at 30° C. with gentle agitation in assay buffer containing 100 mM potassium Phosphate Buffer (KPi), pH 7.5, 0.001% Bovine Serum Albumin (BSA), 0.5 mM dithiothreitol (DTT) and 0.0025% Brij-35. The reaction is initiated by the addition of the fluorogenic substrate, Pantothenate-AMC, at a concentration of 30 μM. After 60 minutes of incubation at 30° C. with gentle agitation, fluorescence intensity is measured at λex=350 nm and λem=450 nm with a fluorescence reader (BMG PHERAstar reader or equivalent).

Row | SMILES | IC50 [1] [µM] | IC50 [2] [µM]
1 | CC(C)(CO)[C@@H](O)C(=O)NCCC(=O)C(N)=O [Example 7, (R)—N-(3-Carbamoyl-3-oxo-propyl)-2,4-dihydroxy-3,3-dimethyl-butyramide] | 1.49 | 0.83
2 | CC(C)(CO)[C@@H](O)C(=O)NCCN(CCOc1ccc(C#N)cc1)C(=O)CCl [Example 61, (R)—N-(2-{(2-Chloro-acetyl)-[2-(4-cyano-phenoxy)-ethyl]-amino}-ethyl)-2,4-dihydroxy-3,3-dimethyl-butyramide] | 0.22 | 3.28
3 | CC(C)(CO)[C@@H](O)C(=O)NCCC(=O)C(=O)NCc1ccc(F)cc1 [Example 17, (R)—N-[3-(4-Fluoro-benzylcarbamoyl)-3-oxo-propyl]-2,4-dihydroxy-3,3-dimethyl-butyramide] | 0.02 | 0.03
4 | CC(C)(CO)[C@@H](O)C(=O)NCCC(=O)C(=O)NCc1ccc(C(=O)NCCc2ccc(Oc3ccccc3)cc2)cc1 [Example 32, 4-{[4-((R)-2,4-Dihydroxy-3,3-dimethyl-butrylamino)-2-oxo-butyrylamino]-methyl)-N-[2-(4-phenoxy-phenyl)-ethyl]-benzamide] | < 0.01 | < 0.01
5 | CC(C)(CO)[C@@H](O)C(=O)NCCN(CCc1ccccc1)C(=O)CCl [Example 59, (R)—N-{2-[(2-Chloro-acetyl)-phenethyl-amino]-ethyl}-2,4-dihydroxy-3,3-dimethyl-butyramide] | 1.2 | 4.04
6 | CC(C)(CO)[C@@H](O)C(=O)NCCN(CCCc1ccccc1)C(=O)CCl [Example 58, (R)—N-{2-[(2-Chloro-acetyl)-(3-phenyl-propyl)-amino]-ethyl}-2,4-dihydroxy-3,3-dimethyl-butyramide] | 0.22 | 2.48
